According to patent US20210392936A1, “Nutritional composition comprising urea and non-digestible oligosaccharides” (N.V. Nutricia, priority 2018, published 2021):

Legend:
[1] = system: urease positive Bifidobacteria (mix of Bifidobacterium longum subspecies infantis strains and Bifidobacterium bifidum ATCC29521); assay: Fermenter growth of urease positive Bifidobacteria mix with or without urea and CO2 (Example 3, first experiment); type: cell-based; conditions: urea N source (100 mM), lactose 20 g/l
Text: (§1) The following strains were used: Bifidobacterium breve DSM20213, which is the type strain of B. breve and urease negative. A mix of Bifidobacterium longum subspecies infantis strains was used that were predicted to be urease positive, to increase the chance of having a urease activity. […] Strains used were a mix of Bifidobacterium longum spp infantis DSM20088 (type strain), B. infantis M-63 (Morinaga), B. longum subspecies infantis ATCC 17930, B. longum subspecies infantis DN_163_0041 isolated from the faeces of a bottle-fed infants, B. infantis DN_163_0046 and B. longum ssp. infantis R-0033 (Lallemand) and Bifidobacterium bifidum ATCC29521 (type strain).
(§2) g/l yeast extract, 0.75 g/l tryptone, 3 g/l KH2PO4, 4.8 g/l K2HPO4, 0.2 g/l MgSO4, 0.5 g Cysteine.HCl, 15 g Sodium Propionate, supplemented with 10 ml vitamin mix and 10 ml metal mix from 100× concentrates (Teusink et al. 2005, AEM, Vol 71 (issue 11) p. 7253-7262) and 100 μM NiCl. The pH of this medium is 6.8 (+/−0.05). As carbon source 20 g/l lactose was used and when appropriate urea was added to a final concentration of 100 mM. The medium was sterilized using filtration step with a 0.22 μm filter. […] Precultures of bifidobacterium strains were grown statically in absence of urea at 37° C. in an anaerobic atmosphere (90% N2, 5% Hz, 5% CO2).
(§3) Inoculation occurred from a single colonies grown on TOS-mupirocin agar plates as known in the art. The main cultures (in the fermenters) were performed with 1×BASE supplemented with 0, 15, 50 or 100 mM urea (if applicable). During fermentation the headspace was flushed with N2 gas or with an anaerobic gas mixture ((90% N2, 5% H2, 5% CO2). CO2 is known to be needed for the growth of most Bifidobacteria in the absence of substrates that can liberate CO2.
(§4) The main fermenters were inoculated with the preculture of B. breve at an OD600 of 0.05. For the B. longum subspecies infantis and bifidum mix the individual precultures were first mixed in an equal amount based on OD600 and subsequently also inoculated with a start OD600 of 0.05. The medium was stirred at 360 rpm by magnet stirring bar. The pH was controlled at 6.2 by addition of 5M NaOH. All growth (precultures, main fermenters, agar plates) experiments were performed at 37° C. Growth was monitored in time by off-line OD600 measurement. Samples were diluted before measurement where appropriate.

[2] = system: Bifidobacterium breve DSM20213 (urease negative); assay: Fermenter growth of urease negative Bifidobacterium with or without urea and CO2 (Example 3, first experiment); type: cell-based; conditions: urea N source (100 mM), lactose 20 g/l
Text: as §1, §2, §3, §4

[3] = system: urease positive B. longum ssp. infantis strains M-63, ATCC17930, DN_163_0041 and R-0033; assay: Growth with urea concentrations or tryptone as nitrogen source, scGOS/IcFOS as carbon source (Example 3, second experiment), urease positive; type: cell-based, Bifidobacterium longum ssp. infantis; conditions: scGOS/IcFOS 20 g/l
Experimental: Fermenters were sterilized containing 80 ml demi water and 20 ml of a 20 wt % solution of scGOS/IcFOS in a 9:1 wt/wt ratio. As a source of scGOS VivinalGOS (DOMO, Friesland Campina) was used, and as a source of IcFOS, RaftilinHP was used (Orafti). After sterilization 100 ml of sterilized 2× concentrated BASE medium was added. The final concentration of scGOS/IcFOS was 2 wt % based on volume, and this served as the carbon source. As a nitrogen source tryptone was added (3.0 g/l), or 0, 10, 50 or 100 mM urea (final concentration), corresponding to 0, 0.6 g/l, 3 g/l and 6 g/l. Precultures were grown in static tubes in 1×BASE supplemented with 3.0 g/l tryptone and 2 wt % scGOS/IcFOS under an anaerobic gas atmosphere (90% N2, 5% Hz, 5% CO2).
as §3, §4
A second experiment was performed. Here the growth with different concentrations urea as nitrogen (and CO2) source was compared to Tryptone (from Oxoid) as nitrogen source. In this case only B. longum ssp. infantis strains M-63, ATCC17930, DN_163_0041 and R-0033 were used and tryptone was removed from the basal medium. Where applicable tryptone or urea were added as nitrogen source to final concentrations of 3 g/l and 10, 50 or 100 mM, respectively. Instead of lactose as carbon source scGOS/IcFOS in a 9:1 wt/wt ratio was used in a final concentration of 20 g/l. As a source of scGOS VivinalGOS (FrieslandCampina) was used, and RaftininHP (Orafti) was used as IcFOS source.

[4] = system: urease negative Bifidobacteria (Bifidobacterium breve DSM20213); assay: Growth with urea or tryptone as nitrogen source, scGOS/IcFOS as carbon source (Example 3, second experiment), urease negative; type: cell-based; conditions: CO2 gas, 50 mM urea, scGOS/IcFOS 20 g/l
[5] = system: Bifidobacterium longum subspecies infantis ATCC 17930 (urease positive); assay: Growth of strain ATCC 17930 with or without urea, CO2 and 2'FL as carbon source (Example 4); type: cell-based; conditions: 10 mM urea
Experimental: In this experiment the urease positive strain Bifidobacterium longum subspecies infantis ATCC 17930, was used. The same growth media and experimental set up as in the second experiment described in example 3 was used, except that instead of scGOS/IcFOS, 2′-fucosyllactose (Jennewein Biotechnologie GmbH) was used as a carbon and energy source. As a nitrogen source tryptone was added (3.0 g/l), or no urea or 10 mM urea (final concentration), corresponding to 0, or 0.6 g/l urea.

[6] = system: B. longum spp infantis M-63, B. longum subspecies infantis ATCC 17930, B. longum ssp. infantis R-0033 (single strains); assay: Growth of single urease positive strains with urea and a carbon source without CO2 and other nitrogen source; type: cell-based, Bifidobacterium longum subspecies infantis; conditions: presence of urea and a carbon source, absence of CO2 and other nitrogen source; data not shown
Text: as §1

## NC(N)=O [urea]
[1]; CO2 gas, 60 min
  Growth expressed as OD600: 0.099 OD600
[1]; CO2 gas, 180 min
  Growth expressed as OD600: 0.168 OD600
[1]; CO2 gas, 360 min
  Growth expressed as OD600: 0.680 OD600
[1]; CO2 gas, 660 min
  Growth expressed as OD600: 3.940 OD600
[1]; CO2 gas, 23 h
  Growth expressed as OD600: 3.850 OD600
[1]; N2 gas, 60 min
  Growth expressed as OD600: 0.095 OD600
[1]; N2 gas, 180 min
  Growth expressed as OD600: 0.161 OD600
[1]; N2 gas, 360 min
  Growth expressed as OD600: 0.560 OD600
[1]; N2 gas, 660 min
  Growth expressed as OD600: 3.930 OD600
[1]; N2 gas, 23 h
  Growth expressed as OD600: 3.700 OD600
[2]; CO2 gas, 60 min
  Growth expressed as OD600: 0.062 OD600
[2]; CO2 gas, 180 min
  Growth expressed as OD600: 0.083 OD600
[2]; CO2 gas, 360 min
  Growth expressed as OD600: 0.211 OD600
[2]; CO2 gas, 660 min
  Growth expressed as OD600: 1.560 OD600
[2]; CO2 gas, 23 h
  Growth expressed as OD600: 2.250 OD600
[2]; N2 gas, 60 min
  Growth expressed as OD600: 0.051 OD600
[2]; N2 gas, 180 min
  Growth expressed as OD600: 0.061 OD600
[2]; N2 gas, 360 min
  Growth expressed as OD600: 0.072 OD600
[2]; N2 gas, 660 min
  Growth expressed as OD600: 0.054 OD600
[2]; N2 gas, 23 h
  Growth expressed as OD600: 0.046 OD600
[3]; CO2 gas, 50 mM urea, 15 min
  Growth expressed as OD600: 0.079 OD600
[3]; CO2 gas, 50 mM urea, 135 min
  Growth expressed as OD600: 0.161 OD600
[3]; CO2 gas, 50 mM urea, 270 min
  Growth expressed as OD600: 0.670 OD600
[3]; CO2 gas, 50 mM urea, 445 min
  Growth expressed as OD600: 2.610 OD600
[3]; CO2 gas, 50 mM urea, 625 min
  Growth expressed as OD600: 6.500 OD600
[3]; CO2 gas, 50 mM urea, 24 h
  Growth expressed as OD600: 6.5 OD600
[3]; N2 gas, 10 mM urea, 15 min
  Growth expressed as OD600: 0.084 OD600
[3]; N2 gas, 10 mM urea, 135 min
  Growth expressed as OD600: 0.137 OD600
[3]; N2 gas, 10 mM urea, 270 min
  Growth expressed as OD600: 0.390 OD600
[3]; N2 gas, 10 mM urea, 445 min
  Growth expressed as OD600: 1.280 OD600
[3]; N2 gas, 10 mM urea, 625 min
  Growth expressed as OD600: 3.900 OD600
[3]; N2 gas, 10 mM urea, 24 h
  Growth expressed as OD600: 3.720 OD600
[3]; N2 gas, 50 mM urea, 15 min
  Growth expressed as OD600: 0.082 OD600
[3]; N2 gas, 50 mM urea, 135 min
  Growth expressed as OD600: 0.140 OD600
[3]; N2 gas, 50 mM urea, 270 min
  Growth expressed as OD600: 0.450 OD600
[3]; N2 gas, 50 mM urea, 445 min
  Growth expressed as OD600: 1.260 OD600
[3]; N2 gas, 50 mM urea, 625 min
  Growth expressed as OD600: 2.970 OD600
[3]; N2 gas, 50 mM urea, 24 h
  Growth expressed as OD600: 2.850 OD600
[3]; N2 gas, 100 mM urea, 15 min
  Growth expressed as OD600: 0.079 OD600
[3]; N2 gas, 100 mM urea, 135 min
  Growth expressed as OD600: 0.144 OD600
[3]; N2 gas, 100 mM urea, 270 min
  Growth expressed as OD600: 0.430 OD600
[3]; N2 gas, 100 mM urea, 445 min
  Growth expressed as OD600: 1.130 OD600
[3]; N2 gas, 100 mM urea, 625 min
  Growth expressed as OD600: 2.800 OD600
[3]; N2 gas, 100 mM urea, 24 h
  Growth expressed as OD600: 2.520 OD600
[4]; 15 min
  Growth expressed as OD600: 0.074 OD600
[4]; 135 min
  Growth expressed as OD600: 0.125 OD600
[4]; 270 min
  Growth expressed as OD600: 0.280 OD600
[4]; 445 min
  Growth expressed as OD600: 0.460 OD600
[4]; 625 min
  Growth expressed as OD600: 0.590 OD600
[4]; 24 h
  Growth expressed as OD600: 1.020 OD600
[5]; CO2 gas, with 2'FL C source (+), 30 min
  Growth expressed as OD600: 0.072 OD600
[5]; CO2 gas, with 2'FL C source (+), 240 min
  Growth expressed as OD600: 0.298 OD600
[5]; CO2 gas, with 2'FL C source (+), 360 min
  Growth expressed as OD600: 0.880 OD600
[5]; CO2 gas, with 2'FL C source (+), 540 min
  Growth expressed as OD600: 2.070 OD600
[5]; CO2 gas, with 2'FL C source (+), 24 h
  Growth expressed as OD600: 3.060 OD600
[5]; CO2 gas, without 2'FL C source (−), 30 min
  Growth expressed as OD600: 0.071 OD600
[5]; CO2 gas, without 2'FL C source (−), 240 min
  Growth expressed as OD600: 0.203 OD600
[5]; CO2 gas, without 2'FL C source (−), 360 min
  Growth expressed as OD600: 0.191 OD600
[5]; CO2 gas, without 2'FL C source (−), 540 min
  Growth expressed as OD600: 0.191 OD600
[5]; CO2 gas, without 2'FL C source (−), 24 h
  Growth expressed as OD600: 0.187 OD600
[5]; N2 gas, with 2'FL C source (+), 30 min
  Growth expressed as OD600: 0.079 OD600
[5]; N2 gas, with 2'FL C source (+), 240 min
  Growth expressed as OD600: 0.154 OD600
[5]; N2 gas, with 2'FL C source (+), 360 min
  Growth expressed as OD600: 0.350 OD600
[5]; N2 gas, with 2'FL C source (+), 540 min
  Growth expressed as OD600: 0.600 OD600
[5]; N2 gas, with 2'FL C source (+), 24 h
  Growth expressed as OD600: 1.320 OD600
[5]; N2 gas, without 2'FL C source (−), 30 min
  Growth expressed as OD600: 0.068 OD600
[5]; N2 gas, without 2'FL C source (−), 240 min
  Growth expressed as OD600: 0.175 OD600
[5]; N2 gas, without 2'FL C source (−), 360 min
  Growth expressed as OD600: 0.179 OD600
[5]; N2 gas, without 2'FL C source (−), 540 min
  Growth expressed as OD600: 0.163 OD600
[5]; N2 gas, without 2'FL C source (−), 24 h
  Growth expressed as OD600: 0.157 OD600
[6]
  Growth of single strains: able to grow very well
